Patent US10202584B2, “Red-shifted luciferase-luciferin pairs for enhanced bioluminescence” (The Regents of the University of California, priority 2016, dated 2019)
Where two headings read alike, the source gives them in different places.

Assays:
[1] = biological target: Rluc8 (Renilla reniformis, UniProt P27652, A143M/A55T/C124A/K136R/M185V/M253L/S130A/S287L); settings: RLuc mutant Rluc8; cited from earlier work
[2] = biological target: NanoLuc (Oplophorus gracilirostris, UniProt Q9GV45, A31E/A60N/A81I/F95D/I117V/K70R/L54V/L99Q/M102K/N193R/P142E/Q151K/Q38R/Q45L/V71I/Y165I); settings: cited from earlier work
[3] = system: luciferase-expressing HEK 293T cells; assay: Bioluminescence imaging of intact luciferase-expressing HEK 293T cells; assay type: cell-based, Human; settings: FLuc-expressing HEK 293T cells, millimolar substrate
Excerpt: Images were acquired without a filter (1c) or with a 695±25 nm NIR emission filter (1e). Panels 2d and 2f are quantification results for Panels 2c and 2e, respectively. […] Data are shown as mean and s.d. of three independent experiments.
Data are shown as mean and s.d. of three independent experiments.
HEK 293T (purchased from ATCC and tested for mycoplasma by PCR), which is one of the most widely used and readily transfectable cell lines, was used for all tissue culture transfections. HEK 293T cells were cultured at 37° C. with 5% CO2 in Dulbecco's Modified Eagle's Medium (DMEM) supplemented with 10% fetal bovine serum (FBS). Transfection mixtures were prepared with 3 μg of plasmid DNA and 9 μg of PEI (polyethylenimine, linear, MW 25 kDa) in DMEM and incubated for 20 min at room temperature. The medium was first aspirated, and subsequently, the transfection mixtures were added to cells at 70% confluency on 35-mm culture dishes seeded one day prior to transfection. […]
The number and density of cells in DPBS suspension were determined using a hemocytometer. […] To use the luminescence dark box to directly image cells, we added luciferase-expressing HEK293T cells (2000 cells per well with ˜70% transfection efficiency) and the corresponding luciferin substrates into wells of a white-wall, 96-well plate. […] All images were analyzed using the Fiji image analysis software [1].

[4] = system: HEK 293T cells; assay: Evaluation of the cytotoxicity of luciferins
Protocol: (§1) FIG. 15 is a panel showing the evaluation of the cytotoxicity of various luciferins. (15a) Viability of HEK 293T cells determined using RealTime-Glo™ MT Cell Viability Assay (Promega) after incubation with individual luciferin substrates for 24 h at 37° C. (15b) Evaluation of cell morphology and staining of dead cells. Cells incubated with the indicated luciferins for 24 h at 37° C. were stained with propidium iodide (PI), a fluorescent dye for dead cells.
(§2) Cell viability was determined using RealTime-Glo™ MT Cell Viability Assay (Promega) after incubation of HEK 293T cells with individual luciferin substrates for 24 h at 37° C. Cell morphology was further evaluated using microscopy. Briefly, HEK 293T cells in 35-mm culture dishes were washed twice with 400 μL DPBS pre-warmed to 37° C., and further incubated in 500 μL DPBS containing 20 μg/mL propidium iodide (PI), a fluorescent stain for dead cells, at room temperature for 15 min under light-shielded conditions. Cells were further rinsed with pre-warmed 300 μL DPBS three times to remove residual PI. Cells in 300 μL DPBS were next analyzed on a Motic AE31 microscope equipped with a 100 W Short-Arc Mercury lamp, a 540/25 nm excitation filter, a 565 nm longpass dichroic mirror, and a 605/55 nm emission filter.

[5] = system: purified luciferases; assay: In vitro bioluminescence intensity with purified recombinant proteins; assay type: biochemical; settings: assayed with NanoLuc
Excerpt: (§3) Signals were integrated until the substrates were completely consumed.

[6] = system: BALB/c mice; assay: Bioluminescence imaging in deep tissues of live mice (hydrodynamic transfection); assay type: in vivo
Excerpt: FIG. 2 is a panel showing bioluminescence imaging of luciferase-luciferin pairs at superficial sites and in deep tissues of live mice. […] The group numbers in panel 2b are aligned with those in panel 2a. Two injection sites (one for luciferase-expressing cells and one for empty vehicle controls) for each mouse are illustrated with red arrows. […] Data are shown as mean and s.d. (n=3). […] Data are shown as mean and s.d. (n=4 for teLuc, Antares, and Antares2 with 3.3 μmol substrates, and n=3 for all other groups).
FIG. 16 is a graph of bioluminescence kinetics of IP injected luciferins (3.3 μmol each) in hydrodynamically transfected mice.
Hydrodynamic transfections were performed on BALB/c mice as described elsewhere. Briefly, 20 μg of each luciferase-expressing plasmid in sterilized saline (volume equivalent to 9% bodyweight of the treated mouse) was injected into restrained mice via the tail vein over 4-8 sec. Mice were allowed to recover on heat pads and were monitored until their breathing rate returned to normal. […] To inject 3.3 μmol DTZ or furimazine, the total volumes were increased to 500 μL. […] The Fiji image analysis software was used to process images and derive integrated intensities.

[7] = system: HEK 293T cells; assay: Cytotoxicity of luciferins (RealTime-Glo MT Cell Viability Assay; propidium iodide staining); assay type: cell-based; settings: 24 h at 37° C., millimolar concentrations
Protocol: as §1, §2

[8] = biological target: NanoLuc luciferase (Oplophorus gracihrostris-derived, parent, SEQ ID NO: 1) (Oplophorus gracilirostris, UniProt Q9GV45, A31E/A60N/A81I/F95D/I117V/K70R/L54V/L99Q/M102K/N193R/P142E/Q151K/Q38R/Q45L/V71I/Y165I); assay: Apparent Michaelis constant and kcat, purified NanoLuc, bioluminescence; settings: kcat=Imax/(QY*[E]); assay buffer pH 6.0; mean ± s.d., n = 3
Excerpt: (§4) The final concentrations of all enzymes were 100 pM.
as §3

[9] = biological target: Antares (NanoLuc fused to CyOFP1) (Oplophorus gracilirostris, UniProt Q9GV45); assay: Apparent Michaelis constant and kcat, Antares, bioluminescence; assay type: biochemical; settings: assay buffer pH 6.0, mean ± s.d., n = 3
Excerpt: as §4
(9a) Primary structural arrangement of Antares and Antares2.
as §3

[10] = biological target: ReNL (NanoLuc fused to fluorescent protein) (Oplophorus gracilirostris, UniProt Q9GV45); assay: Apparent Michaelis constant and kcat, ReNL, bioluminescence; assay type: biochemical; settings: assay buffer pH 6.0, mean ± s.d., n = 3
Excerpt: as §4, §3

[11] = apparent, 100 pM enzyme, substrate 0.78 to 50 μM

ReNL (NanoLuc fused to fluorescent protein), sequence (Q9GV45 28-196): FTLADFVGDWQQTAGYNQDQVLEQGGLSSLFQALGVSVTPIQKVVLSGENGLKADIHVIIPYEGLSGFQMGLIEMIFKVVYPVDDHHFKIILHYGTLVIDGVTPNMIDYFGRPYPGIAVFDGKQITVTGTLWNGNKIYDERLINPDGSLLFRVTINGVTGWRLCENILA
Antares (NanoLuc fused to CyOFP1), sequence (Q9GV45 28-196): as above
Rluc8, sequence (P27652 whole entry A55T/C124A/S130A/K136R/A143M/M185V/M253L/S287L): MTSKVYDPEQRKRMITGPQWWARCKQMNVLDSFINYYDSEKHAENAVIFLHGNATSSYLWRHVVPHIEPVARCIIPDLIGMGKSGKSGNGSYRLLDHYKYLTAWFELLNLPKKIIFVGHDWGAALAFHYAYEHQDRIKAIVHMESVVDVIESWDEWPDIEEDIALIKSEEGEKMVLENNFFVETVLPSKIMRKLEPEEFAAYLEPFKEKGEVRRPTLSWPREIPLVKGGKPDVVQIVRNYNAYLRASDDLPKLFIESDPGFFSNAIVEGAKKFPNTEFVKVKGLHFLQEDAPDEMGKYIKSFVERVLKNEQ
NanoLuc luciferase (Oplophorus gracihrostris-derived, parent, SEQ ID NO: 1), sequence (Q9GV45 28-196 A31E/Q38R/Q45L/L54V/A60N/K70R/V71I/A81I/F95D/L99Q/M102K/I117V/P142E/Q151K/Y165I/N193R, looked up): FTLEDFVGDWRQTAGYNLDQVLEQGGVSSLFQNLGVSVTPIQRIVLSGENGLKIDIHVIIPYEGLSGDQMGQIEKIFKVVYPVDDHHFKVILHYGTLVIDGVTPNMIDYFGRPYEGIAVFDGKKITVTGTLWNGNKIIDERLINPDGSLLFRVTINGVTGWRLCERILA
NanoLuc, sequence (Q9GV45 28-196 with tags or gaps with the stated changes limits assumed): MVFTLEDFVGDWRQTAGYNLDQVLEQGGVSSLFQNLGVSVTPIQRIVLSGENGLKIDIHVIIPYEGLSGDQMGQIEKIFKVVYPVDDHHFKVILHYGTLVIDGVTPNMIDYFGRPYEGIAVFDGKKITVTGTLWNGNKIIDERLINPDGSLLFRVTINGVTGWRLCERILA

6-pi-OH-CTZ
red-shift of Rluc8 bioluminescence [1]: 47 nm | bioluminescence with NanoLuc [2]: hardly any bioluminescence

O=C(O)[C@H]1CSC(c2nc3ccc(O)cc3s2)=N1 [D-luciferin]
bioluminescence intensity with FLuc compared with teLuc or Antares2 with micromolar DTZ [3]: 1-2 orders of magnitude lower

O=c1c(Cc2ccccc2)nc2c(-c3ccccc3)[nH]c(-c3ccccc3)cn1-2 [DTZ, diphenylterazine]
cell toxicity ([4]; HEK 293T cells, 24 h at 37° C., RealTime-Glo MT Cell Viability Assay): minimal cell toxicity at millimolar concentrations | brightness relative to furimazine [5]: reduced brightness | bioluminescence kinetics after intraperitoneal injection ([6]; 3.3 μmol, hydrodynamically transfected mice): extended kinetics | background emission in untransfected BALB/c mice ([6]; DTZ injection): did not yield any background emission

O=c1c(Cc2ccccc2)nc2c(-c3ccccc3)[nH]c(-c3ccccc3)cn1-2 [DTZ]
cell toxicity [7]: minimal cell toxicity

O=c1c(Cc2ccccc2)nc2c([Se]c3ccccc3)[nH]c(-c3ccccc3)cn1-2 [STZ, 2-benzyl-6-phenyl-8-(phenylselanyl)imidazo[1,2-a]pyrazin-3(7H)-one]
cell toxicity [4]: induced cell death | cytotoxicity by propidium iodide staining of dead cells [4]: further confirmed by the red fluorescence of PI | brightness relative to furimazine [5]: reduced brightness

O=c1c(Cc2ccco2)nc2c(Cc3ccccc3)[nH]c(-c3ccccc3)cn1-2 [furimazine]
cell toxicity [4]: induced cell death | cytotoxicity by propidium iodide staining of dead cells ([4]; HEK 293T cells, 24 h at 37° C.): further confirmed by the red fluorescence of PI | kcat [8]: 88.2 ± 1.7 s⁻¹ | Km [9, 11]: 11.1 ± 0.5 µM | kcat ([9]; kcat=Imax/(QY*[E])): 112 ± 2 s⁻¹ | Km [10, 11]: 14.5 ± 1.3 µM | kcat ([10]; kcat=Imax/(QY*[E])): 104 ± 4 s⁻¹

AkaLumine-HCl
cell toxicity [4]: induced cell death | cytotoxicity by propidium iodide staining of dead cells ([4]; HEK 293T cells, 24 h at 37° C.): further confirmed by the red fluorescence of PI | bioluminescence intensity with FLuc compared with teLuc or Antares2 with micromolar DTZ [3]: 1-2 orders of magnitude lower
